Test results as given in patent US9315458B2, “Nitrogen-containing heterocyclic compound” (Takeda Pharmaceutical Company Limited, priority 2014, dated 2016).

Target: T1, human M1 receptor (hCHRM1) (Homo sapiens, UniProt P11229)
T1 construct: expressed in transfected cells
T1 sequence (P11229 1-460): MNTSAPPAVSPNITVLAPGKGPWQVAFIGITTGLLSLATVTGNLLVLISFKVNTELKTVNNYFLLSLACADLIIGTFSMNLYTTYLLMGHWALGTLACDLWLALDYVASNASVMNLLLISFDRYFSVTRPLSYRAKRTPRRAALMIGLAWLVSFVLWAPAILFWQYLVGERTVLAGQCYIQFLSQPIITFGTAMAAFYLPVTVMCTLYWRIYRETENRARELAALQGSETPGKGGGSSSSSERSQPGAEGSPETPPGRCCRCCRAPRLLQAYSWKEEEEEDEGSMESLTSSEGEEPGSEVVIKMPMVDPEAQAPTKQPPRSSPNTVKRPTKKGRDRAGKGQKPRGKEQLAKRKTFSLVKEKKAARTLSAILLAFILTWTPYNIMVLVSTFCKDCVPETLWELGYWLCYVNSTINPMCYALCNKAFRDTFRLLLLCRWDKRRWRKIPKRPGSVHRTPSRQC
Experiment: Measurement of M1 receptor positive allosteric modulator (M1PAM) activity, calcium fluorescence (FLIPRtetra) with acetylcholine at EC20
Format: cell-based
Details: for activity (%) at 10 μM: 10 μM test compound, 100% = acetylcholine 1 μM, 0% = DMSO, acetylcholine at EC20; for EC50: inflection point of concentration-dependent curve, CHO-K1 cells expressing hCHRM1, acetylcholine at EC20 (final 0.6-0.8 nM), read-out: IP value
Experimental: The activity of a test compound in the presence of acetylcholine at EC20 concentration (final concentration 0.6-0.8 nM), which affords an action corresponding to about 20% of the maximum activity, was measured as PAM activity. The method is as follows. CHO-K1 cells stably expressing a human M1 receptor (hCHRM1) were plated on a 384-well black clear bottom plate (BD Falcon) at 5,000 cells/well, and cultured in an incubator at 37° C., 5% CO2 for 1 day. The medium in the cell plate was removed, and assay buffer A (Recording medium (DOJINDO LABORATORIES), 0.1% BSA (Wako Pure Chemical Industries, Ltd.), 2.5 μg/mL Fluo-4 AM (DOJINDO LABORATORIES), 0.08% Pluronic F127 (DOJINDO LABORATORIES), 1.25 mM probenecid (DOJINDO LABORATORIES)) containing a calcium indicator was added at 30 μL/well. The cells were left standing in the incubator at 37° C., 5% CO2 for 30 min, and further left standing at room temperature for 30 min. A test compound prepared by diluting with assay buffer B (HBSS (Invitrogen), 20 mM HEPES (Invitrogen), 0.1% BSA) containing 2.4-3.2 nM acetylcholine was added at 10 μL/well, and the fluorescence was measured by FLIPRtetra (Molecular Devices) for 1 min every 1 second. With the definition that the amount of change in the fluorescence on addition of acetylcholine (final concentration 1 μM) is 100% and that on addition of DMSO instead of a test compound is 0%, the activity (%) of the test compound was calculated, and the inflection point in the concentration-dependent curve of the test compound was calculated as IP values.

Q: `Cc1c(Cc2ccc(-c3ccn(C)n3)cc2)cc2c(c1C)CN(CC1CCCO1)C2=O` (centres unmarked) [Example 85, 4,5-dimethyl-6-(4-(1-methyl-1H-pyrazol-3-yl)benzyl)-2-(tetrahydrofuran-2-ylmethyl)isoindolin-1-one] was tested. Which “activity (%) at 10 μM” value did it give?
A: 105%

Q: What about the EC50 of the same molecule?
A: 41 nM

Q: With `CCc1cc2c(cc1Cc1ccc(-c3cn(C)nn3)cc1)C(=O)N([C@H]1CCC[C@@H]1O)C2` [Example 119, 5-ethyl-2-((1S,2S)-2-hydroxycyclopentyl)-6-(4-(1-methyl-1H-1,2,3-triazol-4-yl)benzyl)isoindolin-1-one] as the molecule, how does the “activity (%) at 10 μM” value read?
A: 91%

Q: And the EC50?
A: 3.1 nM

Q: With `CCc1cc2c(cc1Cc1ccc(-c3cn(C)nn3)cc1)C(=O)N(CC1CCCO1)C2` (centres unmarked) [Example 105, 5-ethyl-6-(4-(1-methyl-1H-1,2,3-triazol-4-yl)benzyl)-2-(tetrahydrofuran-2-ylmethyl)isoindolin-1-one] as the molecule, how does the “activity (%) at 10 μM” value read?
A: 92%

Q: And the EC50?
A: 10 nM

Q: How did the “activity (%) at 10 μM” value turn out when `Cc1c(Cc2ccc(C#N)cc2)cc2c(c1C)CN([C@H]1COCC[C@@H]1O)C2=O` [Example 156, 4-({2-[(3S,4S)-4-hydroxytetrahydro-2H-pyran-3-yl]-6,7-dimethyl-3-oxo-2,3-dihydro-1H-isoindol-5-yl}methyl)benzonitrile] was run?
A: 80%

Q: What about the EC50 of the same molecule?
A: 4.3 nM

Q: With `CCc1cc2c(cc1Cc1ccc(-c3cn(C)nn3)cc1)C(=O)N(CC(C)(C)O)C2` [Example 118, 5-ethyl-2-(2-hydroxy-2-methylpropyl)-6-(4-(1-methyl-1H-1,2,3-triazol-4-yl)benzyl)isoindolin-1-one] as the molecule, how does the “activity (%) at 10 μM” value read?
A: 106%

Q: And the EC50?
A: 25 nM

Q: Which “activity (%) at 10 μM” value does the source give for `Cc1cc2c(cc1Cc1ccc(-c3ccn(C)n3)nc1)C(=O)N([C@H]1CCCC[C@@H]1O)C2` (racemic) [Example 42, rac-2-(trans-2-hydroxycyclohexyl)-5-methyl-6-((6-(1-methyl-1H-pyrazol-3-yl)pyridin-3-yl)methyl)isoindolin-1-one] here?
A: 115%

Q: And the EC50?
A: 9.2 nM

Q: What does the source list for `Cc1c(Cc2ccc(C#N)cc2)cc2c(c1C)CN([C@H]1CCCC[C@@H]1O)C2=O` [Example 155, 4-((2-((1S,2S)-2-hydroxycyclohexyl)-6,7-dimethyl-3-oxo-2,3-dihydro-1H-isoindol-5-yl)methyl)benzonitrile]?
A: activity (%) at 10 μM: 100%; EC50: 7.1 nM

Q: How did the “activity (%) at 10 μM” value turn out when `Cc1cc2c(cc1Cc1ccc(-c3cn(C)nn3)cc1)C(=O)N(CC1CCCO1)C2` (centres unmarked) [Example 49, 5-methyl-6-(4-(1-methyl-1H-1,2,3-triazol-4-yl)benzyl)-2-(tetrahydrofuran-2-ylmethyl)isoindolin-1-one] was run?
A: 97%

Q: And the EC50?
A: 31 nM

Q: With `Cc1c(Cc2ccc(C(N)=O)cc2F)cc2c(c1C)CN([C@H]1COCC[C@@H]1O)C2=O` (racemic) [Example 113, rac-3-fluoro-4-((2-(trans-4-hydroxytetrahydro-2H-pyran-3-yl)-6,7-dimethyl-3-oxo-2,3-dihydro-1H-isoindol-5-yl)methyl)benzamide] as the molecule, how does the “activity (%) at 10 μM” value read?
A: 82%

Q: And the EC50?
A: 1.5 nM

Q: Which “activity (%) at 10 μM” value does the source give for `Cc1c(Cc2ccc(C#N)cc2F)cc2c(c1C)CN([C@H]1COCC[C@@H]1O)C2=O` (racemic) [Example 112, rac-3-fluoro-4-((2-(trans-4-hydroxytetrahydro-2H-pyran-3-yl)-6,7-dimethyl-3-oxo-2,3-dihydro-1H-isoindol-5-yl)methyl)benzonitrile] here?
A: 93%

Q: What about the EC50 of the same molecule?
A: 30 nM

Q: Which results are given for `Cc1c(Cc2ccc(-c3cn(C)nn3)cc2F)cc2c(c1C)CN(CC1CCCO1)C2=O` (centres unmarked) [Example 103, 6-(2-fluoro-4-(1-methyl-1H-1,2,3-triazol-4-yl)benzyl)-4,5-dimethyl-2-(tetrahydrofuran-2-ylmethyl)isoindolin-1-one]?
A: activity (%) at 10 μM: 94%; EC50: 6 nM

Q: `CCc1cc2c(cc1Cc1ccc(-n3cccn3)cc1)C(=O)N([C@H]1COCC[C@@H]1O)C2` [Example 128, 5-ethyl-2-[(3S,4S)-4-hydroxytetrahydro-2H-pyran-3-yl]-6-[4-(1H-pyrazol-1-yl)benzyl]-2,3-dihydro-1H-isoindol-1-one] was tested. Which “activity (%) at 10 μM” value did it give?
A: 97%

Q: And the EC50?
A: 5 nM

Q: With `Cc1c(Cc2ccc(-c3ccn(C)n3)cc2)cc2c(c1C)CN(C[C@@H]1CCCO1)C2=O` [Example 109, 4,5-dimethyl-6-(4-(1-methyl-1H-pyrazol-3-yl)benzyl)-2-((2S)-tetrahydrofuran-2-ylmethyl)isoindolin-1-one] as the molecule, how does the “activity (%) at 10 μM” value read?
A: 100%

Q: What about the EC50 of the same molecule?
A: 23 nM

Q: `Cc1c(Cc2ccc(-n3cccn3)cc2)cc2c(c1F)CN([C@H]1CCC[C@@H]1O)C2=O` [Example 107, 4-fluoro-2-((1S,2S)-2-hydroxycyclopentyl)-5-methyl-6-(4-(1H-pyrazol-1-yl)benzyl)isoindolin-1-one] was tested. Which “activity (%) at 10 μM” value did it give?
A: 102%

Q: And the EC50?
A: 14 nM

Q: How did the “activity (%) at 10 μM” value turn out when `Cc1cc2c(cc1Cc1ccc(-n3cccn3)cc1)C(=O)N(CC1CCCO1)C2` (centres unmarked) [Example 36, 5-methyl-6-(4-(1H-pyrazol-1-yl)benzyl)-2-(tetrahydrofuran-2-ylmethyl)isoindolin-1-one] was run?
A: 107%

Q: What about the EC50 of the same molecule?
A: 83 nM

Q: With `Cc1c(Cc2ccc(-c3ccn(C)n3)cc2F)cc2c(c1C)CN([C@H]1CCC[C@@H]1O)C2=O` (racemic) [Example 71, rac-6-(2-fluoro-4-(1-methyl-1H-pyrazol-3-yl)benzyl)-2-(trans-2-hydroxycyclopentyl)-4,5-dimethylisoindolin-1-one] as the molecule, how does the “activity (%) at 10 μM” value read?
A: 100%

Q: And the EC50?
A: 56 nM

Q: With `Cc1c(Cc2ccc(-n3cccn3)nc2)cc2c(c1C)CN(C[C@@H]1CCCO1)C2=O` [Example 136, 4,5-dimethyl-6-((6-(1H-pyrazol-1-yl)pyridin-3-yl)methyl)-2-((2S)-tetrahydrofuran-2-ylmethyl)isoindolin-1-one] as the molecule, how does the “activity (%) at 10 μM” value read?
A: 100%

Q: And the EC50?
A: 75 nM

Q: For `Cc1c(Cc2ccc(Cl)cc2)cc2c(c1C)CN([C@H]1COCC[C@@H]1O)C2=O` [Example 17, 1,5-anhydro-2-(6-(4-chlorobenzyl)-4,5-dimethyl-1-oxo-1,3-dihydro-2H-isoindol-2-yl)-2,4-dideoxy-L-threo-pentitol], which “activity (%) at 10 μM” value is on record?
A: 90%

Q: What about the EC50 of the same molecule?
A: 18 nM

Q: `Cn1cc(-c2ccc(Cc3cc4c(cc3C3CC3)CN(CC3CCCO3)C4=O)cc2)nn1` (centres unmarked) [Example 61, 5-cyclopropyl-6-(4-(1-methyl-1H-1,2,3-triazol-4-yl)benzyl)-2-(tetrahydrofuran-2-ylmethyl)isoindolin-1-one] was tested. Which “activity (%) at 10 μM” value did it give?
A: 97%

Q: And the EC50?
A: 35 nM

Q: With `COc1cc2c(cc1Cc1ccc(-n3cccn3)cc1)C(=O)N([C@H]1CCCC[C@@H]1O)C2` (racemic) [Example 3, rac-2-(trans-2-hydroxycyclohexyl)-5-methoxy-6-(4-(1H-pyrazol-1-yl)benzyl)isoindolin-1-one] as the molecule, how does the “activity (%) at 10 μM” value read?
A: 106%

Q: What about the EC50 of the same molecule?
A: 15 nM

Q: Which “activity (%) at 10 μM” value does the source give for `Cc1c(Cc2ccc(C#N)cc2F)cc2c(c1C)CN([C@H]1COCC[C@@H]1O)C2=O` [Example 124, 3-fluoro-4-({2-[(3S,4S)-4-hydroxytetrahydro-2H-pyran-3-yl]-6,7-dimethyl-3-oxo-2,3-dihydro-1H-isoindol-5-yl}methyl)benzonitrile] here?
A: 86%

Q: What about the EC50 of the same molecule?
A: 16 nM

Q: Which results are given for `CCc1cc2c(cc1Cc1ccc(-c3cn(C)nn3)cc1)C(=O)N([C@H]1CCC[C@@H]1O)C2` (racemic) [Example 106, rac-5-ethyl-2-(trans-2-hydroxycyclopentyl)-6-(4-(1-methyl-1H-1,2,3-triazol-4-yl)benzyl)isoindolin-1-one]?
A: activity (%) at 10 μM: 92%; EC50: 11 nM

Q: Which results are given for `Cc1c(Cc2ccc(-c3cn(C)nn3)cc2)cc2c(c1C)CN(C[C@H]1CCCO1)C2=O` [Example 110, 4,5-dimethyl-6-(4-(1-methyl-1H-1,2,3-triazol-4-yl)benzyl)-2-((2R)-tetrahydrofuran-2-ylmethyl)isoindolin-1-one]?
A: activity (%) at 10 μM: 77%; EC50: 24 nM

Q: For `Cc1cc2c(cc1Cc1ccc(-n3cccn3)cc1)C(=O)N(C1CCOCC1)C2` [Example 8, 5-methyl-6-(4-(1H-pyrazol-1-yl)benzyl)-2-(tetrahydro-2H-pyran-4-yl)isoindolin-1-one], which “activity (%) at 10 μM” value is on record?
A: 90%

Q: What about the EC50 of the same molecule?
A: 290 nM

Q: How did the “activity (%) at 10 μM” value turn out when `Cc1c(Cc2ccc(-c3cnn(C)c3)cc2)cc2c(c1C)CN([C@H]1CCC[C@@H]1O)C2=O` (racemic) [Example 69, rac-2-(trans-2-hydroxycyclopentyl)-4,5-dimethyl-6-(4-(1-methyl-1H-pyrazol-4-yl)benzyl)isoindolin-1-one] was run?
A: 95%

Q: And the EC50?
A: 13 nM
